Measured values: patent US20040082623A1, “Fmoc-l-leucine and derivatives thereof as ppar-gamma agonists” (priority 2003, published 2004)

Experiments:
hPPARγ LBD = biological target: T1, hPPARγ LBD (Homo sapiens, UniProt P37231); experiment: ESI-mass spectrometry of ligand binding to PPARγ LBD
T1 construct: Human PPARγ (aa. 203 to 477 of PPARγ) was subcloned into the pET15b; His-tag (N); made in house
T1 sequence (P37231 203-477 isoform P37231-2): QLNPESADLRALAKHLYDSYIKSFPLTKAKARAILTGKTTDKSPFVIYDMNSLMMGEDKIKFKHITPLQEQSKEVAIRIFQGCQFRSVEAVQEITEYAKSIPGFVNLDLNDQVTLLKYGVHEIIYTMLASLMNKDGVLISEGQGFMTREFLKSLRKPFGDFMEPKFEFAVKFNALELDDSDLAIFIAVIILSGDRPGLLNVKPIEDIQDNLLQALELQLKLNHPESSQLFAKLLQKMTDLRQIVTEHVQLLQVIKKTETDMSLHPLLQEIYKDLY
From the text: FIG. 5: Two molecules of F-L-Leu bind to a single PPARγ molecule. ESI-mass spectrometry analysis.
The p300Nt-GST, fusion protein was generated by cloning the N-terminal part of the p300 protein (a.a. 2 to 516) downstream of the glutathione-S-transferase (GST) protein in the pGex-T1 vector (Pharmacia, Orsay, France). The fusion proteins were then expressed in Escherichia coli and purified on a glutathione affinity matrix (Pharmacia). Human PPARγ (aa. 203 to 477 of PPARγ) was subcloned into the pET15b (Novagen, Madison, Wis.) expression vector. The his-tagPPARγ2DE203-477 proteins were produced as follow. The protein was purified using a metal chelate affinity column with an affinity column Co^2+ coupled agarose (High Trap chelatin, Pharmacia). The protein was eluted with 20 mM Tris-HCl, […], 130 mM imidazole and 1-2 propanediol 2.5% (pH 8.5). A second purification step was made by gel filtration (Superdex 200 16/60, Pharmacia). The protein was eluted with 20 mM Tris-HCl, 100 mM NaCl, 5 mM DTT and 1-2 propanediol 2,5% (pH 8.5). […]
Electrospray ionization (ESI) mass spectrometry of hPPARγ LBD (amino acid 203 t ? 477) was used to identify the specific binding of F-L-Leu with PPARγ (FIG. 5). […] The mass of the receptor wa ? determined after incubation by ESI-mass spectrometry.

PPARγ2 = biological target: T2, PPARγ2 (Homo sapiens, UniProt P37231); experiment: Transient transfection, PPARγ2 reporter (luciferase/β-galactosidase) in Hep G2 cells; type: cell-based; design: a construct containing the entire cDNA of the human PPARγ2 (hPPARγ2); expressed in transfected cells; host or cells: Hep G2
T2 sequence (P37231 1-505): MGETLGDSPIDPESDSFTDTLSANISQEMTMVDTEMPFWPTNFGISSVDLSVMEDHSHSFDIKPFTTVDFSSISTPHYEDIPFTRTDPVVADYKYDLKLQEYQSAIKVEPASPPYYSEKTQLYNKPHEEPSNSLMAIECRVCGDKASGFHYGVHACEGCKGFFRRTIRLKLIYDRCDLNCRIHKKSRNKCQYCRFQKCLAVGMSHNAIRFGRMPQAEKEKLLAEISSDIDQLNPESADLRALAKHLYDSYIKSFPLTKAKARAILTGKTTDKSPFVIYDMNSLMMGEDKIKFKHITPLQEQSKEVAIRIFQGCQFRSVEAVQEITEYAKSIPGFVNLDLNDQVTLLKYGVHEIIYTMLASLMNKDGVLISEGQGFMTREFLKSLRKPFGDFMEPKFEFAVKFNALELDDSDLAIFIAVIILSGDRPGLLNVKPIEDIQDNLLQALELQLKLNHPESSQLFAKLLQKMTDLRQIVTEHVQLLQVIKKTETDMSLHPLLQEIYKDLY
Method: Hep G2 cells were co-transfected with an expression vector for PPARγ2 (0.1 μg/well), pGL3-(Jwt)3TKLuc reporter construct (0.5 μg/well), and pCMV-βGal (0.5 μg/well), as a control of transfection efficiency (0.5 μg/well). The were then grown during 24 h in the presence or absence of indicated compound Activation is expressed as relative luciferase activity/β-galactosidase activity. Each point was performed in triplicate. This figure is representative of three independent experiments.
RK13 cells (A and D), CV1 cells (B) or Hep G2 cells (C) were co-transfected with an expression vector for PPARγ2 (0.1 μg/well), pGL3-(Jwt)3TKLuc reported construct (0.5 μg/well), and pCMV-βGal (0.5 μg/well), as a control of transfection efficiency (0.5 μg/well). They were then grown during 24 h in the presence or absence of indicated compound. Activation is expressed as relative luciferase activity/β ? galactosidase activity. Each point was performed in triplicate, and each figure i ? representative of four independent experiments.
The CV1, RK-13, and Hep G2 cell lines were obtained from ATCC (Rockville, Md.). Cells were maintained in Dulbecco's modified Eagle's minimal essential medium (DMEM) supplemented with 10% fetal calf serum (FCS), L-glutamine, and antibiotics. Transfections with chloramphenicol acetyltransferase (CAT) or luciferase (luc.) reporter constructs were carried out exactly as described previously (Schoonjans et al., 1996). The pGL3-(Jwt)3TKLuc and the pGL3-(Jwt)3TKCAT reporter constructs contain both three tandem repeats of the J site of the apolipoprotein A-II promoter cloned upstream of the herpes simplex virus thymidine kinase (TK) promoter and the luciferase or the CAT reporter genes respectively (Vu-Dac et al., 1995). The following expression vectors were used; pSG5-hPPARγ2, a construct containing the entire cDNA of the human PPARγ2 (hPPARγ2) (Fajas et al., 1997); pSG5-mPPARα (Isseman et al., 1993); and pCMV-βGal, as a control of transfection efficiency.

SMILES: CC(C)CC(NC(=O)OCC1c2ccccc2-c2ccccc21)C(=O)O [F-L-Leu, N-(9-fluroroenylmethyloxycarbonyl)-L-Leucine]
- PPARγ species detected (hPPARγ LBD; 1 equivalent of ligand per equivalent of PPARγ: unliganded, 1:1 and 1:2 complexes): three populations of PPARγ
- number of ligand molecules bound per PPARγ LBD (hPPARγ LBD; 8 equivalents of ligand per 1 equivalent of PPARγ, only complex detected): 2
- optimal concentration for PPARγ activation compared with PG J2 (PPARγ2; HepG2): similar
- optimal concentration relative to concentration of rosiglitazone or pioglitazone necessary to reach the same efficacy (PPARγ2; HepG2, fold higher, pioglitazone data not shown): 100 fold
- PPARγ activation (relative luciferase activity/β-galactosidase activity) (PPARγ2; HepG2 cells, pSG5-hPPARγ2, 24 h, F-L-leu at 10^−5 M): Significant PPARγ activity
- concentration required for optimal PPARγ activation (PPARγ2; human HepG2 cells): 10^−5 M
- potency in transfection experiments relative to rosiglitazone (PPARγ2; summary statement, cell line not named): two orders of magnitude less potent
